Laboratory results as given in the NIST ThermoML archive (doi:10.1021/acs.jced.8b00212).
Numbers after ± are expanded uncertainties.

Settings: Fluid (supercritical or subcritical phases), Brillouin light scattering

CCCCCCC [heptane]
Settings	speed of sound [m/s]
513.4 K, 8000 kPa	451.65 ± 18
513.58 K, 6000 kPa	394.15 ± 14
513.59 K, 3000 kPa	293.56 ± 8.7
513.65 K, 4000 kPa	333.84 ± 11
513.92 K, 2500 kPa	266.66 ± 7.5
515.23 K, 5000 kPa	363.89 ± 12
515.3 K, 10000 kPa	481.16 ± 20
521.41 K, 5000 kPa	337.01 ± 11
523.19 K, 10000 kPa	459.31 ± 19
523.83 K, 3000 kPa	242.56 ± 6.7
524.25 K, 4000 kPa	291.43 ± 8.7
524.62 K, 6000 kPa	357.73 ± 12
524.62 K, 8000 kPa	417.84 ± 16
525.23 K, 2500 kPa	196.31 ± 5.5
528.41 K, 3000 kPa	218.56 ± 5.8
528.9 K, 4000 kPa	269.01 ± 7.6
528.93 K, 2500 kPa	167.01 ± 5
528.95 K, 8000 kPa	403.55 ± 15
529.1 K, 6000 kPa	344.17 ± 11
532.76 K, 3000 kPa	193.81 ± 5.4
533.4 K, 10000 kPa	437.12 ± 17
533.55 K, 4000 kPa	252.16 ± 6.9
533.57 K, 8000 kPa	391.25 ± 14
533.77 K, 6000 kPa	331.99 ± 10
534.12 K, 2500 kPa	121.38 ± 4.8
534.45 K, 5000 kPa	293.97 ± 8.7
537.58 K, 4000 kPa	231.06 ± 6.4
538.13 K, 2500 kPa	101.28 ± 3.8
538.36 K, 3000 kPa	152.7 ± 4.5
538.84 K, 8000 kPa	376.34 ± 13
539.09 K, 6000 kPa	316.72 ± 9.6
541.47 K, 4000 kPa	208.26 ± 5.3
542.55 K, 8000 kPa	364.39 ± 12
543.16 K, 10000 kPa	413.25 ± 15
543.5 K, 5000 kPa	262.34 ± 7.4
543.6 K, 6000 kPa	300.59 ± 8.8
544.09 K, 2500 kPa	100.71 ± 2.2
544.95 K, 3000 kPa	115.6 ± 3.4
547.02 K, 2500 kPa	107.6 ± 2.3
548.66 K, 8000 kPa	346.4 ± 11
548.98 K, 6000 kPa	283.97 ± 8.1
549.04 K, 3000 kPa	105.27 ± 2.9
549.16 K, 4000 kPa	178.39 ± 4.8
552.59 K, 2500 kPa	118.66 ± 2.5
553.05 K, 6000 kPa	270.32 ± 7.5
553.19 K, 8000 kPa	335.76 ± 11
553.2 K, 10000 kPa	388.87 ± 14
553.42 K, 5000 kPa	225.17 ± 5.8
553.43 K, 4000 kPa	160.12 ± 4
553.93 K, 3000 kPa	110.64 ± 2.6
557.81 K, 8000 kPa	325.48 ± 10
557.86 K, 6000 kPa	255.8 ± 6.9
559.74 K, 3000 kPa	116.03 ± 2.4
559.91 K, 2500 kPa	129.19 ± 2.8
560.41 K, 4000 kPa	132.63 ± 2.9
563.03 K, 10000 kPa	363.89 ± 12
563.09 K, 3000 kPa	119.84 ± 2.5
563.58 K, 8000 kPa	312.82 ± 9.5
563.84 K, 6000 kPa	236.54 ± 6.2
563.94 K, 4000 kPa	124.51 ± 2.9
564.02 K, 2500 kPa	135.46 ± 3
565.65 K, 5000 kPa	187.87 ± 4.7
572.57 K, 2500 kPa	144.47 ± 3.2
573.39 K, 10000 kPa	345.21 ± 11
574.33 K, 3000 kPa	134.46 ± 3
574.41 K, 8000 kPa	287.41 ± 8.2
574.85 K, 6000 kPa	211.93 ± 5.4
574.87 K, 5000 kPa	160.49 ± 3.9
575.28 K, 4000 kPa	113.58 ± 2.4
577.04 K, 5000 kPa	154.18 ± 3.8
579.18 K, 10000 kPa	331.94 ± 10
582.31 K, 5000 kPa	142.67 ± 3.3
582.39 K, 3000 kPa	142.99 ± 3.1
582.86 K, 10000 kPa	325.02 ± 10
583.1 K, 8000 kPa	270.69 ± 7.5
583.18 K, 6000 kPa	191.45 ± 4.8
584.19 K, 2500 kPa	156.26 ± 3.5
584.6 K, 4000 kPa	122.55 ± 2.5
587.85 K, 10000 kPa	315.79 ± 9.6
588.17 K, 5000 kPa	139.88 ± 3.2
590.48 K, 2500 kPa	161.58 ± 3.6
591.62 K, 4000 kPa	127.84 ± 2.6
591.77 K, 3000 kPa	152.87 ± 3.5
592.28 K, 5000 kPa	136.41 ± 3
592.57 K, 6000 kPa	176.14 ± 4.2
592.71 K, 10000 kPa	307.49 ± 9.3
593.19 K, 8000 kPa	249.19 ± 6.7
597.48 K, 5000 kPa	135.43 ± 3.2
601.6 K, 2500 kPa	170.4 ± 3.8
602.3 K, 5000 kPa	135.26 ± 2.9
602.84 K, 3000 kPa	161.38 ± 3.6
603.51 K, 10000 kPa	291.2 ± 8.6
603.68 K, 4000 kPa	143.88 ± 3.1
604.1 K, 6000 kPa	161.83 ± 3.7
604.67 K, 8000 kPa	226 ± 5.8
607.65 K, 5000 kPa	136.72 ± 3.1
612.08 K, 4000 kPa	149.82 ± 3.2
612.37 K, 3000 kPa	167.57 ± 3.7
612.58 K, 2500 kPa	179.23 ± 4.1
613.73 K, 6000 kPa	158.49 ± 3.6
613.93 K, 8000 kPa	218.01 ± 5.4
614.03 K, 10000 kPa	272.94 ± 7.5
615.11 K, 5000 kPa	142.58 ± 3.1
620.2 K, 8000 kPa	211.6 ± 5.3
620.87 K, 2500 kPa	183.77 ± 4.2
621.22 K, 4000 kPa	157.32 ± 3.5
622.48 K, 6000 kPa	158.77 ± 3.6
623.13 K, 10000 kPa	260.67 ± 7.2
623.25 K, 5000 kPa	150.58 ± 3.2
623.42 K, 3000 kPa	174.58 ± 4
631.85 K, 4000 kPa	163.15 ± 3.6
632.04 K, 3000 kPa	179.96 ± 4.1
632.18 K, 2500 kPa	189.44 ± 4.3
632.29 K, 5000 kPa	156.55 ± 3.4
632.41 K, 6000 kPa	159.42 ± 3.5
632.86 K, 8000 kPa	201.03 ± 4.8
640.72 K, 2500 kPa	192.85 ± 4.6
641.53 K, 3000 kPa	186.21 ± 4.2
641.95 K, 4000 kPa	173.32 ± 4
642.59 K, 8000 kPa	195.65 ± 4.6
643.04 K, 6000 kPa	164.74 ± 3.6
643.51 K, 5000 kPa	165.41 ± 3.6
650.07 K, 2500 kPa	195.77 ± 4.6
650.9 K, 3000 kPa	189.41 ± 4.3
